Reference: patent US20090048214A1, “Methods for Treating Renal Tumors Using 2, 4-Pyrimidinediamine Drug and Prodrug Compounds” (RIGEL PHARMACEUTICALS, INC, priority 2006, published 2009)

Legend:
[1] = system: T-47D; conditions: Breast Cancer, besylate salt
[2] = system: SR; assay: cells; conditions: Homo sapiens
[3] = system: MALME-3M; assay: cells; conditions: Homo sapiens
[4] = system: SNB-75; conditions: SNB-75, CNS Cancer; besylate salt
[5] = system: SK-MEL-2; assay: cells; conditions: Homo sapiens
[6] = system: SNB-19; assay: cells; conditions: Homo sapiens
[7] = system: NCI-H522; conditions: NCI-H522, Non-Small Cell Lung Cancer; besylate salt
[8] = system: RPM1-8226; conditions: RPM1-8226, Leukemia; besylate salt
[9] = system: UACC-62; assay: cells; conditions: Homo sapiens, UACC-62, read-out: LC50
[10] = system: HCC-2998; assay: cells; conditions: Homo sapiens
[11] = system: HL-60(TB); conditions: Leukemia, besylate salt
[12] = system: SNB-75; assay: cells; conditions: Homo sapiens
[13] = system: LOX I MVI; conditions: Melanoma, besylate salt
[14] = system: SW-620; assay: cells; conditions: Homo sapiens, SW-620, read-out: LC50
[15] = system: CAKI-1; assay: cells; conditions: Homo sapiens
[16] = system: RPM1-8226; assay: cells; conditions: Homo sapiens
[17] = system: 786-0; conditions: 786-0, Renal Cancer; besylate salt
[18] = system: OVCAR-4; assay: cells; conditions: Homo sapiens
[19] = system: OVCAR-8; assay: cells; conditions: Homo sapiens
[20] = system: KM12; conditions: KM12, Colon Cancer; besylate salt
[21] = system: SK-MEL-5; conditions: SK-MEL-5, Melanoma; besylate salt
[22] = system: OVCAR-3; assay: cells; conditions: Homo sapiens
[23] = system: TK-10; assay: cells; conditions: Homo sapiens, TK-10, read-out: LC50
[24] = system: SF-295; conditions: SF-295, CNS Cancer; besylate salt
[25] = system: HCT-116; assay: cells; conditions: Homo sapiens, HCT-116, read-out: LC50
[26] = system: EKVX; conditions: Non-Small Cell Lung Cancer, besylate salt
[27] = system: BT-549; assay: cells; conditions: Homo sapiens
[28] = system: SK-MEL-28; conditions: SK-MEL-28, Melanoma; besylate salt
[29] = system: NCI-H23; assay: cells; conditions: Homo sapiens, NCI-H23, read-out: LC50
[30] = system: A549/ATCC; assay: cells; conditions: Homo sapiens, A549, read-out: LC50
[31] = system: OVCAR-5; assay: cells; conditions: Homo sapiens
[32] = system: NCI/ADR-RES; assay: cells; conditions: Homo sapiens
[33] = system: UO-31; assay: cells; conditions: Homo sapiens
[34] = system: SNB-19; conditions: SNB-19, CNS Cancer; besylate salt
[35] = system: MDA-MB-435; assay: cells; conditions: Homo sapiens
[36] = system: MCF7; assay: cells; conditions: Homo sapiens

Q: Which TGI [1] does the source give for `COc1cc(Nc2ncc(F)c(Nc3ccc4c(n3)NC(=O)C(C)(C)O4)n2)cc(OC)c1OC` [Compound 1] here?
A: The TGI was greater than 1.00E−4.

Q: And the IC50 ([2]; read-out: G150)?
A: The IC50 was 3.56 µM.

Q: And the CC50 ([2]; read-out: LC50)?
A: Its CC50 is greater than 100 µM.

Q: And the IC50 ([3]; read-out: G150)?
A: The IC50 was greater than 100 µM.

Q: What about the CC50 ([3]; read-out: LC50) of the same compound?
A: Its CC50 is greater than 100 µM.

Q: What about the TGI [4] of the same compound?
A: Its TGI is greater than 1.00E−4.

Q: What about the IC50 ([5]; SK-MEL-2, read-out: G150) of the same compound?
A: The IC50 was greater than 100 µM.

Q: And the CC50 ([5]; SK-MEL-2, read-out: LC50)?
A: The CC50 was greater than 100 µM.

Q: And the IC50 ([6]; SNB-19, read-out: G150)?
A: Its IC50 is greater than 100 µM.

Q: What about the CC50 ([6]; SNB-19, read-out: LC50) of the same compound?
A: The CC50 was greater than 100 µM.

Q: What about the TGI [7] of the same compound?
A: Its TGI is greater than 1.00E−4.

Q: And the TGI [8]?
A: Its TGI is greater than 1.00E−4.

Q: What about the CC50 [9] of the same compound?
A: The CC50 was greater than 100 µM.

Q: What about the IC50 ([10]; HCC 2998, read-out: G150) of the same compound?
A: Its IC50 is greater than 100 µM.

Q: And the CC50 ([10]; HCC 2998, read-out: LC50)?
A: Its CC50 is greater than 100 µM.

Q: What about the TGI [11] of the same compound?
A: Its TGI is greater than 1.00E−4.

Q: And the IC50 ([12]; SNB-75, read-out: G150)?
A: Its IC50 is 0.871 µM.

Q: And the CC50 ([12]; SNB-75, read-out: LC50)?
A: The CC50 was greater than 100 µM.

Q: What about the TGI [13] of the same compound?
A: The TGI was 1.13E−6.

Q: And the CC50 [14]?
A: The CC50 was greater than 100 µM.

Q: What about the IC50 ([15]; CAKI-1, read-out: G150) of the same compound?
A: The IC50 was 0.0515 µM.

Q: What about the CC50 ([15]; CAKI-1, read-out: LC50) of the same compound?
A: The CC50 was greater than 100 µM.

Q: And the IC50 ([16]; read-out: G150)?
A: The IC50 was greater than 100 µM.

Q: What about the CC50 ([16]; read-out: LC50) of the same compound?
A: Its CC50 is greater than 100 µM.

Q: What about the TGI [17] of the same compound?
A: The TGI was greater than 1.00E−4.

Q: What about the IC50 ([18]; OVCAR-4, read-out: G150) of the same compound?
A: Its IC50 is greater than 100 µM.

Q: What about the CC50 ([18]; OVCAR-4, read-out: LC50) of the same compound?
A: The CC50 was greater than 100 µM.

Q: What about the IC50 ([19]; OVCAR-8, read-out: G150) of the same compound?
A: The IC50 was greater than 100 µM.

Q: And the CC50 ([19]; OVCAR-8, read-out: LC50)?
A: The CC50 was greater than 100 µM.

Q: And the TGI [20]?
A: Its TGI is greater than 1.00E−4.

Q: And the TGI [21]?
A: Its TGI is greater than 1.00E−4.

Q: And the IC50 ([22]; OVCAR-3, read-out: G150)?
A: Its IC50 is greater than 100 µM.

Q: And the CC50 ([22]; OVCAR-3, read-out: LC50)?
A: The CC50 was greater than 100 µM.

Q: And the CC50 [23]?
A: The CC50 was greater than 100 µM.

Q: What about the TGI [24] of the same compound?
A: The TGI was greater than 1.00E−4.

Q: And the CC50 [25]?
A: Its CC50 is greater than 100 µM.

Q: And the TGI [26]?
A: The TGI was greater than 1.00E−4.

Q: What about the IC50 ([27]; BT-549, read-out: G150) of the same compound?
A: Its IC50 is 2.43 µM.

Q: What about the CC50 ([27]; BT-549, read-out: LC50) of the same compound?
A: The CC50 was greater than 100 µM.

Q: And the TGI [28]?
A: Its TGI is greater than 1.00E−4.

Q: What about the CC50 [29] of the same compound?
A: Its CC50 is greater than 100 µM.

Q: What about the CC50 [30] of the same compound?
A: Its CC50 is greater than 100 µM.

Q: And the IC50 ([31]; OVCAR-5, read-out: G150)?
A: Its IC50 is greater than 100 µM.

Q: And the CC50 ([31]; OVCAR-5, read-out: LC50)?
A: Its CC50 is greater than 100 µM.

Q: And the IC50 ([32]; read-out: G150)?
A: Its IC50 is greater than 100 µM.

Q: And the CC50 ([32]; read-out: LC50)?
A: Its CC50 is greater than 100 µM.

Q: And the IC50 ([33]; UO-31, read-out: G150)?
A: Its IC50 is 0.596 µM.

Q: What about the CC50 ([33]; UO-31, read-out: LC50) of the same compound?
A: The CC50 was greater than 100 µM.

Q: And the TGI [34]?
A: The TGI was greater than 1.00E−4.

Q: And the IC50 ([35]; MDA-MB-435, read-out: G150)?
A: The IC50 was 3.62 µM.

Q: And the CC50 ([35]; MDA-MB-435, read-out: LC50)?
A: Its CC50 is greater than 100 µM.

Q: What about the IC50 ([36]; MCF7, read-out: G150) of the same compound?
A: The IC50 was 2.72 µM.

Q: And the CC50 ([36]; MCF7, read-out: LC50)?
A: The CC50 was greater than 100 µM.
